Assay results: patent publication US11370763B2, “Compounds and compositions for treating conditions associated with NLRP activity” (Novartis AG, priority 2017, dated 2022)

Tested on: IL-1β production in PMA-differentiated THP-1 cells
Test: IL-1β production in PMA-differentiated THP-1 cells stimulated with gramicidin (hTHP-1 assay containing 2% fetal bovine serum; Procedures 1-3)
Type: cell-based, human
Conditions: Homo sapiens, THP-1, hTHP-1 assay containing 2% fetal bovine serum; class symbols; read-out: hTHP-1 IC50 (Average IC50 of compounds in hTHP-1 assay)
In short: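 THP-1 cells differentiated with PMA (20 ng/ml, 16-18 h), replated in 2% FBS RPMI (50,000 cells/well), preincubated 1 h with compound (top final 100 μM, 3-fold steps, 0.37% DMSO), then stimulated 2 h with gramicidin (5 μM). Supernatant IL-1β measured by HTRF.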

Row | Compound | IC50 [µM]
1 | CC(C)c1cc(-c2ccc3c(c2)CCOC3)cc(C(C)C)c1CC(=O)N=S(=O)(NC(=O)OC(C)(C)C)c1cnc(C(C)(C)O)s1 (stereo not drawn) [Example 138, tert-butyl (2-(2-hydroxypropan-2-yl)-N-(2-(4-(isochroman-6-yl)-2,6-diisopropylphenyl)acetyl)thiazole-5-sulfonimidoyl)carbamate] | 1 to 5
2 | CC(C)c1cc2c(c(C(C)C)c1CC(=O)N=S(N)(=O)c1cnc(C(C)(C)O)s1)CCC2 (stereo not drawn) [Example 142, N-(amino(2-(2-hydroxypropan-2-yl)thiazol-5-yl)(oxo)-λ^6-sulfaneylidene)-2-(4,6-diisopropyl-2,3-dihydro-1H-inden-5-yl)acetamide] | 1 to 5
3 | COc1cc(C(C)C)c(CC(=O)NS(=O)(=O)c2ncc(C(C)(C)O)s2)c(C(C)C)n1 [Example 143, 2-(2,4-diisopropyl-6-methoxypyridin-3-yl)-N-((5-(2-hydroxypropan-2-yl)thiazol-2-yl)sulfonyl)acetamide] | 1 to 5
4 | CC(C)c1ncc(F)c(C(C)C)c1CC(=O)N=S(N)(=O)c1ncc(C(C)(C)O)s1 (stereo not drawn) [Example 144, N-(amino(5-(2-hydroxypropan-2-yl)thiazol-2-yl)(oxo)-λ^6-sulfaneylidene)-2-(5-fluoro-2,4-diisopropylpyridin-3-yl)acetamide] | 5 to 30
5 | CC(C)c1ncc(F)c(C(C)C)c1CC(=O)N=S(N)(=O)c1cnc(C(C)(C)O)s1 (stereo not drawn) [Example 146, N-(amino(2-(2-hydroxypropan-2-yl)thiazol-5-yl)(oxo)-λ^6-sulfaneylidene)-2-(5-fluoro-2,4-diisopropylpyridin-3-yl)acetamide] | 5 to 30
6 | CC(C)c1ncc(F)c(C(C)C)c1CC(=O)N=S(N)(=O)c1nc(C(C)(C)O)cs1 (stereo not drawn) [Example 147, N-(amino(4-(2-hydroxypropan-2-yl)thiazol-2-yl)(oxo)-λ^6-sulfaneylidene)-2-(5-fluoro-2,4-diisopropylpyridin-3-yl)acetamide] | 1 to 5
7 | CC(C)c1ncc(F)c(C(C)C)c1CC(=O)N=S(N)(=O)c1ccn(C(C)C)n1 (stereo not drawn) [Example 148, N-(amino(1-isopropyl-1H-pyrazol-3-yl)(oxo)-λ^6-sulfaneylidene)-2-(5-fluoro-2,4-diisopropylpyridin-3-yl)acetamide] | 5 to 30
8 | Cc1ncc(C(C)C)c(CC(=O)N=S(N)(=O)c2sc(C(C)(C)O)cc2F)c1C(C)C (stereo not drawn) [Example 150, N-(amino(3-fluoro-5-(2-hydroxypropan-2-yl)thiophen-2-yl)(oxo)-λ^6-sulfaneylidene)-2-(3,5-diisopropyl-2-methylpyridin-4-yl)acetamide] | 5 to 30
9 | CC(C)c1nc(C(F)(F)F)nc(C(C)C)c1CC(=O)N=S(N)(=O)c1cnc(C(C)(C)O)s1 (stereo not drawn) [Example 153, N-(amino(2-(2-hydroxypropan-2-yl)thiazol-5-yl)(oxo)-λ^6-sulfaneylidene)-2-(4,6-diisopropyl-2-(trifluoromethyl)pyrimidin-5-yl)acetamide] | 1 to 5
10 | CC(C)c1cnc(F)c(C(C)C)c1CC(=O)N=S(N)(=O)c1cnc(C(C)(C)O)s1 (stereo not drawn) [Example 154, N-(amino(2-(2-hydroxypropan-2-yl)thiazol-5-yl)(oxo)-λ^6-sulfaneylidene)-2-(2-fluoro-3,5-diisopropylpyridin-4-yl)acetamide] | 5 to 30
11 | CC(C)c1cc2c(c(C(C)C)c1CC(=O)N=S(N)(=O)c1ccn(C(C)C)n1)COC2 (stereo not drawn) [Example 221, N-(amino(1-isopropyl-1H-pyrazol-3-yl)(oxo)-λ^6-sulfaneylidene)-2-(4,6-diisopropyl-1,3-dihydroisobenzofuran-5-yl)acetamide] | 5 to 30
12 | COc1ccc(CNS(=O)(=NC(=O)Cc2c(C(C)C)cc(F)cc2C(C)C)c2ncc(C(C)(C)O)s2)cc1 (stereo not drawn) [compound 41, 2-(4-fluoro-2,6-diisopropylphenyl)-N-(5-(2-hydroxypropan-2-yl)-N-(4-methoxybenzyl)thiazole-2-sulfonimidoyl)acetamide] | 5 to 30

Further lines, results first:

Row | IC50 [µM] | Compound
13 | 0.2 to 1 | CC(C)c1cc(-c2ccc3c(c2)CCOC3)cc(C(C)C)c1CC(=O)N=S(N)(=O)c1cnc(C(C)(C)O)s1 (stereo not drawn) [Example 139, N-(amino(2-(2-hydroxypropan-2-yl)thiazol-5-yl)(oxo)-λ^6-sulfaneylidene)-2-(4-(isochroman-6-yl)-2,6-diisopropylphenyl)acetamide]
14 | 0.2 to 1 | CC(C)c1cc(COC2CCCC2)cc(C(C)C)c1CC(=O)N=S(=O)(NC(=O)OC(C)(C)C)c1cnc(C(C)(C)O)s1 (stereo not drawn) [Example 140, tert-butyl (N-(2-(4-((cyclopentyloxy)methyl)-2,6-diisopropylphenyl)acetyl)-2-(2-hydroxypropan-2-yl)thiazole-5-sulfonimidoyl)carbamate]
15 | 0.04 to 0.2 | CC(C)c1cc(COC2CCCC2)cc(C(C)C)c1CC(=O)N=S(N)(=O)c1cnc(C(C)(C)O)s1 (stereo not drawn) [Example 141, N-(amino(2-(2-hydroxypropan-2-yl)thiazol-5-yl)(oxo)-λ^6-sulfaneylidene)-2-(4-((cyclopentyloxy)methyl)-2,6-diisopropylphenyl)acetamide]
16 | 0.2 to 1 | CC(C)c1ncc(F)c(C(C)C)c1CC(=O)N=S(N)(=O)c1cc(C(C)(C)O)cs1 (stereo not drawn) [Example 145, N-(amino(4-(2-hydroxypropan-2-yl)thiophen-2-yl)(oxo)-λ^6-sulfaneylidene)-2-(5-fluoro-2,4-diisopropylpyridin-3-yl)acetamide]
17 | 0.2 to 1 | CC(C)c1ncc(F)c(C(C)C)c1CC(=O)N=S(N)(=O)c1sc(C(C)(C)O)cc1F (stereo not drawn) [Example 149, N-(amino(3-fluoro-5-(2-hydroxypropan-2-yl)thiophen-2-yl)(oxo)-λ^6-sulfaneylidene)-2-(5-fluoro-2,4-diisopropylpyridin-3-yl)acetamide]
18 | 0.2 to 1 | CC(C)c1cc(C#N)nc(C(C)C)c1CC(=O)N=S(N)(=O)c1cc(C(C)(C)O)cs1 (stereo not drawn) [Example 151, N-(amino(4-(2-hydroxypropan-2-yl)thiophen-2-yl)(oxo)-λ^6-sulfaneylidene)-2-(6-cyano-2,4-diisopropylpyridin-3-yl)acetamide]
19 | 0.2 to 1 | COCc1cc(C(C)C)c(CC(=O)N=S(N)(=O)c2cc(C(C)(C)O)cs2)c(C(C)C)n1 (stereo not drawn) [Example 152, N-(amino(4-(2-hydroxypropan-2-yl)thiophen-2-yl)(oxo)-λ^6-sulfaneylidene)-2-(2,4-diisopropyl-6-(methoxymethyl)pyridin-3-yl)acetamide]
20 | 0.04 to 0.2 | CC(C)c1cc2c(c(C(C)C)c1CC(=O)N=S(N)(=O)c1cc(C(C)(C)O)cs1)COC2 (stereo not drawn) [Example 220, N-(amino(4-(2-hydroxypropan-2-yl)thiophen-2-yl)(oxo)-λ^6-sulfaneylidene)-2-(4,6-diisopropyl-1,3-dihydroisobenzofuran-5-yl)acetamide]
21 | 0.2 to 1 | CC(C)c1cc(C#N)c(F)c(C(C)C)c1CC(=O)N=S(N)(=O)c1ncc(C(C)(C)O)s1 (stereo not drawn) [compound 13, 2-(4-cyano-3-fluoro-2,6-diisopropylphenyl)-N-(5-(2-hydroxypropan-2-yl)thiazol-2-ylsulfonimidoyl)acetamide]
